System: TPM3-NTRK1-wt IC50 / primary target (e.g. CD74-ROS1-wt) IC50, Ba/F3 cells
Experiment: Cell assay TRKA selectivity (TRKA potency divided by primary target potency)
Type: cell-based
Conditions: for TPM3-NTRK1-wt/CD74-ROS1-G2032R: TRKA selectivity ratio: TPM3-NTRK1-wt IC50 / CD74-ROS1-G2032R IC50, Ba/F3 cells; for TPM3-NTRK1-wt/CD74-ROS1-wt: TRKA selectivity ratio: TPM3-NTRK1-wt IC50 / CD74-ROS1-wt IC50, Ba/F3 cells; for TPM3-NTRK1-wt/EML4-ALK-L1196M-G1202R: TRKA selectivity ratio: TPM3-NTRK1-wt IC50 / EML4-ALK-L1196M-G1202R IC50, Ba/F3 cells; for TPM3-NTRK1-wt/EML4-ALK-wt: TRKA selectivity ratio: TPM3-NTRK1-wt IC50 / EML4-ALK-wt IC50, Ba/F3 cells
How it was run: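 Ratio of TRKA to primary-target cellular IC50 (e.g. TPM3-NTRK1-wt/CD74-ROS1-wt), grouped into bins A >30, B >10, C ≥1, D <1. Each IC50 came from engineered Ba/F3 fusion lines grown without IL-3, dosed for 72 h and read as CellTiter-Glo luminescence, with a four-parameter logistic fit.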

In the case of CCn1ncc2c1-c1cnc(N)c(c1)OC(C)c1cc(F)ccc1-c1cnccc1C2 (stereo not drawn) [Example 35, 3-ethyl-17-fluoro-20-methyl-21-oxa-3,4,11,24-tetraazapentacyclo[20.3.1.0^2,^6.0^8,^13.0^14,^19]hexacosa-1(25),2(6),4,8(13),9,11,14,16,18,22(26),23-undecaen-23-amine], the TPM3-NTRK1-wt/CD74-ROS1-G2032R is reported as “A (bin A for very high selectivity, ratio>30-fold)”, the TPM3-NTRK1-wt/CD74-ROS1-wt is reported as “A (bin A for very high selectivity, ratio>30-fold)” and the TPM3-NTRK1-wt/EML4-ALK-L1196M-G1202R is reported as “C (bin C for moderate selectivity, ratio≥1)”. The TPM3-NTRK1-wt/EML4-ALK-wt was “A (bin A for very high selectivity, ratio>30-fold)”.
CCn1nc(OC)c2c1-c1cnc(N)c(c1)O[C@H](C)c1cc(F)ccc1-c1nn(C)cc1C2 [Example 181, (19R)-3-ethyl-16-fluoro-5-methoxy-10,19-dimethyl-20-oxa-3,4,10,11,23-pentaazapentacyclo[19.3.1.0^2,^6.0^8,^12.0^13,^18]pentacosa-1(24),2(6),4,8,11,13,15,17,21(25),22-decaen-22-amine] was tested, and the TPM3-NTRK1-wt/CD74-ROS1-G2032R was “A (bin A for very high selectivity, ratio>30-fold)”, the TPM3-NTRK1-wt/CD74-ROS1-wt was “A (bin A for very high selectivity, ratio>30-fold)” and the TPM3-NTRK1-wt/EML4-ALK-L1196M-G1202R was “C (bin C for moderate selectivity, ratio≥1)”. The TPM3-NTRK1-wt/EML4-ALK-wt was “A (bin A for very high selectivity, ratio>30-fold)”.
In the case of C[C@H]1Oc2cc(cnc2N)-c2c(C#N)nn(C)c2Cc2cn(C)nc2-c2ccc(F)cc21 [Example 21, (19R)-22-amino-16-fluoro-5,10,19-trimethyl-20-oxa-4,5,10,11,23-pentaazapentacyclo[19.3.1.0^2,^6.0^8,^12.0^13,^18]pentacosa-1(24),2(6),3,8,11,13,15,17,21(25),22-decaene-3-carbonitrile], the TPM3-NTRK1-wt/CD74-ROS1-G2032R is reported as “A (bin A for very high selectivity, ratio>30-fold)”, the TPM3-NTRK1-wt/CD74-ROS1-wt is reported as “A (bin A for very high selectivity, ratio>30-fold)” and the TPM3-NTRK1-wt/EML4-ALK-L1196M-G1202R is reported as “B (bin B for high selectivity, ratio>10-fold)”. The TPM3-NTRK1-wt/EML4-ALK-wt was “A (bin A for very high selectivity, ratio>30-fold)”.
For C[C@H]1Oc2cc(cnc2N)-c2c(C#N)nn(C)c2Cc2cc(C(F)F)nn2-c2ccc(F)cc21 [Example 132, (19R)-22-amino-10-(difluoromethyl)-16-fluoro-5,19-dimethyl-20-oxa-4,5,11,12,23-pentaazapentacyclo[19.3.1.0^2,^6.0^8,^12.0^13,^18]pentacosa-1(24),2(6),3,8,10,13,15,17,21(25),22-decaene-3-carbonitrile], the TPM3-NTRK1-wt/CD74-ROS1-G2032R was “A (bin A for very high selectivity, ratio>30-fold)”, the TPM3-NTRK1-wt/CD74-ROS1-wt was “A (bin A for very high selectivity, ratio>30-fold)” and the TPM3-NTRK1-wt/EML4-ALK-L1196M-G1202R was “C (bin C for moderate selectivity, ratio≥1)”. The TPM3-NTRK1-wt/EML4-ALK-wt was “A (bin A for very high selectivity, ratio>30-fold)”.
With C[C@H]1Oc2cc(cnc2N)-c2c(c(Cl)nn2CC2CC2)Cc2cn(C)nc2-c2ccc(F)cc21 [Example 133, (19R)-5-chloro-3-(cyclopropylmethyl)-16-fluoro-10,19-dimethyl-20-oxa-3,4,10,11,23-pentaazapentacyclo[19.3.1.0^2,^6.0^8,^12.0^13,^18]pentacosa-1(24),2(6),4,8,11,13,15,17,21(25),22-decaen-22-amine] the TPM3-NTRK1-wt/CD74-ROS1-G2032R was “A (bin A for very high selectivity, ratio>30-fold)”, the TPM3-NTRK1-wt/CD74-ROS1-wt was “A (bin A for very high selectivity, ratio>30-fold)” and the TPM3-NTRK1-wt/EML4-ALK-L1196M-G1202R was “A (bin A for very high selectivity, ratio>30-fold)”. For the same compound, the TPM3-NTRK1-wt/EML4-ALK-wt was “A (bin A for very high selectivity, ratio>30-fold)”.
For CCn1ncc2c1-c1cnc(N)c(c1)OCc1cc(F)ccc1-c1nc(C)sc1C2 [Example 89, 3-ethyl-16-fluoro-10-methyl-20-oxa-9-thia-3,4,11,23-tetraazapentacyclo[19.3.1.0^2,^6.0^8,^12.0^13,^18]pentacosa-1(24),2(6),4,8(12),10,13,15,17,21(25),22-decaen-22-amine], the TPM3-NTRK1-wt/CD74-ROS1-G2032R was “A (bin A for very high selectivity, ratio>30-fold)”, the TPM3-NTRK1-wt/CD74-ROS1-wt was “A (bin A for very high selectivity, ratio>30-fold)” and the TPM3-NTRK1-wt/EML4-ALK-L1196M-G1202R was “B (bin B for high selectivity, ratio>10-fold)”. For the same compound, the TPM3-NTRK1-wt/EML4-ALK-wt was “A (bin A for very high selectivity, ratio>30-fold)”.

— patent publication US11667649B2, “Heteroaromatic macrocyclic ether chemotherapeutic agents” (Nuvalent, Inc., priority 2020, dated 2023)
